Structures can show the parent of a compound that is named as a salt.
Assays:
[1] = test system: human A431 (human epidermoid carcinoma cell line) xenograft tumor; experiment: Tumor inhibition on human A431 xenograft in nude mice; type: in vivo, BALB/C nude mice
Description: This was a preliminary study to compare Icotinib hydrochloride Crystalline Form I with erlotinib hydrochloride on inhibition of human A431 (human epidermoid carcinoma cell line) xenograft tumor.
Methods: The high EGFR-expressing human A431 (human epidermoid carcinoma cell line) cell line was selected for the xenograft study.
Tumor transplantation method: A431 human epidermoid cancer cells were inoculated subcutaneously in the right armpit of BALB/C nude mice to generate tumor nodules. These nodules were harvested, cut into 6 mm^3 blocks for routine inoculation and implanted into each mouse for the study. When tumors reached approximately 20 mm^3 in size (6-7 days), the animals were randomly divided into 4 groups of 6-9 animals/each group and body weights were recorded. The groups consisted of a control group (no drug treatment), an erlotinib hydrochloride treatment group (200 mg/kg) and high and low dose Icotinib hydrochloride Crystalline Form I treatment groups (200 and 50 mg/kg). Drugs were administered by oral gavage once daily; dosing frequency depended on the individual case for tumor growth. Tumor volume [tumor volume (V)=tumor size (L)×short diameter of tumor (S)^2/2] was measured using calipers once every 3 days. The animals were sacrificed 24-hour after the last drug administration and weighed. The tumor was removed and weighed to accurately calculate the tumor size. All group data was analyzed using the t test. If the p value was <0.05, it was considered to be statistically significant. Efficacy determination: tumor inhibition rate=[1−treatment group mean tumor weight (T)/control group mean tumor weight (C)]×100%

[2] = Pharmacokinetic study of the different crystalline forms and the free base in rats; type: in vivo, Wistar rats; settings: fasted Wistar rats, oral suspension, dose equivalent to 35 mg/kg Icotinib hydrochloride, plasma
Method: Drugs and reagents: Icotinib (free base) and Icotinib hydrochloride crystalline forms I, II, III, and IV were ground to fine particles. The material content (purity) was not less than 99.0%. Sodium carboxymethyl cellulose was medical supply graded. Experimental animals: Wistar rats, male and female, 150-220 g each. Pharmaceutical preparation: Weigh the appropriate amount of each substance and add sodium carboxymethyl cellulose to 0.5%. Prepare a suspension at a final concentration of 3.5 mg/mL in water. Administration and sample collection: Each suspension was administered orally to fasted Wistar rats at a dose equivalent to 35 mg/kg Icotinib hydrochloride in a dose volume of 10 ml/kg. […] After purification, samples were analyzed by high performance liquid chromatography. The chromatographic conditions utilized C18-silane bonded silica as stationary phase, 0.02 mol/L of sodium dihydrogen phosphate in acetonitrile (40:60, using sodium hydroxide solution to adjust pH to 5.0) as the mobile phase and a detection wavelength of 334 nm.

| SMILES | body weight and appearance at experiment termination ([1]; A431 xenograft nude mice) | tumor inhibition rate ([1]; A431 xenograft, 200 mg/kg oral gavage once daily (later reduced to 100 mg/kg)) | animals died ([1]; after 5 days at 200 mg/kg) | The area under the concentration-time curve (0-infinity) [2] | The area under the concentration-time curve (0-t) [2] |
| --- | --- | --- | --- | --- | --- |
| C#Cc1cccc(Nc2ncnc3cc(OCCOC)c(OCCOC)cc23)c1 [erlotinib, Erlotinib Hydrochloride, reference compound] | lost weight and appeared sluggish | 77.6% | 3 of 8 | – | – |
| C#Cc1cccc(Nc2ncnc3cc4c(cc23)OCCOCCOCCO4)c1 [Free base, 4-[(3-ethynyl-phenyl)amino]-6,7-benzo-12-crown-quinazoline, reference compound] | – | – | – | 29.36 | 28.83 |
